Entries after “also recorded” stand apart in the source; their conditions may differ. Where two headings read alike, the source gives them in different places. Values belong to the compound of their own block, whether it stands above or below them.
What was measured:
[1] = tested on: AsPC1—human pancreatic adenocarcinoma; assay: CellTiter-Glo cell viability assay, AsPC1; type: cell-based
[2] = tested on: U87-MG—human, brain glioblastoma; assay: CellTiter-Glo cell viability assay, U87-MG; type: cell-based
[3] = tested on: H1437—human, lung adenocarcinoma, non-small cell lung cancer; assay: CellTiter-Glo cell viability assay, H1437; type: cell-based
[4] = tested on: adenovirus serotype 3; assay: Plaque inhibition of adenovirus serotype 3 by ADPR and lithium chloride (Example 2); type: cell-based, Adenovirus serotype 3 (Ad3)
[5] = tested on: A549 cell monolayers
[6] = tested on: MV411—human, myelomonocytic leukemia; assay: CellTiter-Glo cell viability assay, MV411; type: cell-based
[7] = tested on: tumor necrosis factor alpha (TNF-α) mediated cytotoxicity; conditions: in vitro, levels as low as; cited from earlier work
[8] = tested on: adenovirus serotype 3; assay: Adenovirus plaque inhibition assay in A549 cells (Example 1); type: cell-based, Adenovirus serotype 3 (Ad3)
[9] = tested on: A549 cell monolayers; conditions: human
[10] = tested on: Adenovirus serotype 5 (Ad5); assay: Viral keratoconjunctivitis model, modified McDonald-Shadduck scoring (Example 6); type: in vivo, Oryctolagus cuniculus (New Zealand White rabbits)
From the text: • Species: Oryctolagus cuniculus • Strain: New Zealand White rabbits • Sex: Female • Age: Commensurate with weight • Weight: Approximately 2.5 to 3.0 kilograms at study start • Number: 8 (naïve) • Method of Identification: Ear tag and cage label • Minimum Acclimation: 5 days
• 1. Inoculum—Adenovirus serotype 5 (Ad5) • (a) Physicochemical Characteristics and Composition Description: Virus propagated in A549 cells in DMEM with 8% fetal bovine serum. Cells and supernatant harvested, sonicated, and clarified by low speed centrifugation. Infectious titer by TCID50: 5.0×109 plaque-forming-units (PFU) per mL. • (b) Storage Condition: frozen at −60 to −80° C. • 2. Test Article—Dilithium ADPR • (a) Molecular weight: approximately 571.18 • (b) Storage Condition: Refrigerated at 2-8° C. • 3. Control Vehicle • (a) Composition: 0.31% sodium chloride, 0.1% sodium tetraborate, 1% boric acid, 0.35% polyethylene glycol 300 (PEG-300) in deionized (DI) water • (b) Storage Condition: Refrigerated at 2° C.-8° C. • 4. Test/Control Article Preparation • (a) Ad5 was supplied in a single aliquot for both days of inoculation. Immediately prior to the first viral inoculation on Day −1, the virus was thawed and brought to room temperature. 0.05 mL (50 μL) of the 5.0×10^9 PFU Ad5/mL solution was diluted with 1.5 mL of Dulbecco's Modified Eagle Medium (DMEM) to create a 1.61×10^8 PFU Ad5/mL solution. After the first inoculation on Day −1, the remaining virus solution was stored refrigerated at 2-8° C. until the second inoculation on Day 0. Virus solution was not re-frozen. • (b) Vehicle: 55.8 mg sodium chloride, 18 mg of sodium tetraborate, 180 mg of boric acid, and 63 mg of PEG-300 were weighed out into a vial. 14 mL DI water was added, and vial contents were swirled, vortexed, and/or sonicated if needed until a clear solution is formed. The pH of the solution was tested using pH tester strips and adjusted to 7.0-7.2, if necessary, using sodium hydroxide (NaOH) or additional boric acid. The volume was then brought up to 18 mL with additional DI water to make a 0.31% sodium chloride, 0.1% sodium tetraborate, 1% boric acid, 0.35% PEG-300 solution. The vial contents were sterile filtered through a 0.2 or 0.22 μm filter. • (c) Dilithium ADPR—High Dose: 240 mg of dilithium ADPR was weighed out into a vial. 12 mg of sodium tetraborate, 120 mg of boric acid, and 42 mg of PEG-300 were weighed out into a separate vial. 7 mL DI water was added, and vial contents were swirled, vortexed, and/or sonicated if needed until a clear solution is formed. The solution was transferred to the vial containing dilithium ADPR. The volume was brought up to […] with DI water, and vial contents were swirled, vortexed, and/or sonicated if needed until a clear solution is formed. […]

[11] = tested on: A549 cell monolayers; assay: Toxicity score on A549 cell monolayers (Example 2)
[12] = tested on: A549 cells; assay: Thinning of the A549 monolayer in the plaque assay (Example 5); type: cell-based, human
Description: (§1) A549 cells were plated 7×10^4 cells per well in 6-well plates. After 18 hours, growth media was removed and 1 mL of each sample mixtures was added per well. After incubating for one hour at 37° C., approximately 50-75 plaque forming units Ad3 and separately Ad5 were added per well. Virus adsorbed to the cells for two hours and then media was aspirated from the monolayers and replaced with Virus Growth Media containing Sample A dilutions of 0, 0.5, 1.0, 2.0, and 4.0 mg/mL, and agarose.
Ad3 and Ad5 plaque size and number were reduced by Sample A at 4 mg/mL and 2 mg/mL. […] The thin monolayer made it hard to delineate plaques. Very few plaques were visible as compared to control. […] Mean plaque counts at Sample A concentrations were as follows: • Ad3: 4 mg/mL-29; 2 mg/mL-10; 1 mg/mL-44; 0.5 mg/mL-54; 0 mg/mL-55 • Ad5: 4 mg/mL-7; 2 mg/mL-7; 1 mg/mL-25; 0.5 mg/mL-53; 0 mg/mL-65 Conclusion

[13] = tested on: A549 (human alveolar adenocarcinoma) cell culture; assay: MTT incorporation in A549 cell culture (Example 8); type: cell-based; conditions: for Average MTT incorporation as measured by OD560: 48 hours
Description: ADPR, sodium Salt, (Sigma A0752), was tested in A549 (human alveolar adenocarcinoma) cell culture to determine its effect on replication. ADPR was evaluated at five concentrations by incubation for 48 hours with A549 cells (previously grown to a monolayer) at 37° C. After incubation, MTT (3-(4,5-dimethylthiaz ol-2-yl)-2,5-diphenyltetrazolium bromide) dye was added to each well and live cells were measured by blue dye incorporation.

[14] = tested on: A549 cell monolayers; assay: Toxicity score on A549 cell monolayers (Example 1)
[15] = tested on: Adenovirus 5; assay: Plaque inhibition by dilithium ADPR, Ad5 in A549 cells (Example 5); type: cell-based, Adenovirus 5 (Ad5); conditions: 4, 2, 1 and 0.5 mg/mL
Description: (§2) Dilithium ADPR, 150 mg powder, was stored in a glass vial (“Sample A”) at 4° C. in the dark until use. On the day of assay, Sample A was solubilized to 200 mg/ml in 750 μL water for irrigation, then further diluted to target concentrations. […] Solubilized Sample A was tested for plaque inhibitory properties against Adenovirus 3 and Adenovirus 5 (Ad3 & Ad5).
(§3) Solubilized Sample A was diluted to 4 mg/mL, 2 mg/mL, 1 mg/mL and 0.5 mg/mL in Virus Growth Media (DMEM, 2% Fetal Bovine Serum (FBS) and antibiotic, antimycotic).
as §1

[16] = tested on: Adenovirus 3; assay: Plaque inhibition by dilithium ADPR, Ad3 in A549 cells (Example 5); type: cell-based, Adenovirus 3 (Ad3); conditions: 4, 2, 1 and 0.5 mg/mL
Description: as §2, §3, §1

[17] = AsPC1, 72 hours treatment, average of two values
[18] = U87-MG, 72 hours treatment, average of two values
[19] = H1437, 72 hours treatment, average of two values
[20] = 0.5%, 1% and 2% topical TID, Day 3 and Day 7 compared to baseline on Day 1, p<0.01
[21] = MV411, 72 hours treatment, average of two values

Compound: [Cl-].[Li+] [Sample L, Lithium Chloride]
- IC50 [1]: > 3000 µM
- IC50 [2]: > 3000 µM
- IC50 [3]: > 3000 µM
- Plaque appearance [4]: much larger; also recorded: very large plaques
- Toxicity Scores (T value) [5]: T = 0
- IC50 [6]: > 6000 µM

Compound: Nc1ncnc2c1ncn2[C@@H]1O[C@H](COP(=O)(O)OP(=O)(O)OC[C@H]2OC(O)[C@H](O)[C@@H]2O)[C@@H](O)[C@H]1O (some centres unmarked) [ADPR, 5′-adenosine diphosphate ribose]
- ADPR level with measurable inhibition of TNF-α mediated cytotoxicity [7]: 5 mg/L

Compound: Nc1ccn(C[C@@H](CO)OCP(=O)(O)O)c(=O)n1 [Cidofovir]
- Plaque appearance ([4]; 3 μM Cidofovir): small plaques
- Plaque appearance ([4]; 33 μM Cidofovir): Pinpoint plaques
- Plaque Counts ([8]; 20 μM Cidofovir): 39
- Plaque appearance ([8]; 100 μM Cidofovir): pinpoint
- Plaque size and number ([8]; cidofovir, as concentrations were increased (20, 100 μM)): decreased

Compound: NC(=O)c1cccnc1 [Compound N, Nicotinamide]
- Toxicity Scores (T value) ([9]; 60 μg/ml): T = 0
- Toxicity Scores (T value) ([9]; 600 μg/ml): T = 2
- Toxicity Scores (T value) ([9]; 6000 μg/ml): T = 3
- Plaque appearance ([8]; 600 μg/ml nicotinamide alone): much larger
- Plaque Counts ([8]; Compound N 6000 μg/ml, 0 μg/ml Compound A, Ad3, A549): Toxic

Compound: Dilithium ADPR
- IC50 [1, 17]: 570 µM
- IC50 [2, 18]: 1560 µM
- IC50 [3, 19]: 531 µM
- Composite modified McDonald-Shadduck score (total of all sub scores) [10, 20]: significantly improved; also recorded: significant improvement
- Subscore conjunctival congestion [10, 20]: improvement that was statistically significant
- Subscore surface area of corneal involvement ([10]; 0.5%, 1% and 2% topical TID, Day 3 and Day 7 compared to baseline on Day 1, p<0.05): improvement that was statistically significant
- Reduction in the composite score ([10]; all doses (0.5%, 1.0% and 2.0%), by Day 7): > 80%
- IC50 [6, 21]: 323 µM

- IC50 [1, 17]: 1.5 µM
- IC50 [2, 18]: 1.2 µM
- IC50 [3, 19]: 0.2 µM
- IC50 [6, 21]: 1.17 µM
Compound: CCc1c2c(nc3ccc(O)cc13)-c1cc3c(c(=O)n1C2)COC(=O)[C@]3(O)CC [SN38]

Compound: Adenosine 5′-diphosphoribose Sodium Salt [Compound A]
- Toxicity Scores (T value) ([11]; Sample A 0.44 mM): T = 0
- Toxicity Scores (T value) ([11]; Sample A 1.33 mM): T = 0
- Toxicity Scores (T value) ([11]; Sample A 4.0 mM): T = 0
- Monolayer compared to cell control wells ([12]; 1 mg/mL and 0.5 mg/mL): slight thinning
- Monolayer compared to control wells ([12]; 4 and 2 mg/mL): moderate thinning
- Average MTT incorporation as measured by OD560 ([13]; 1.5 mg/mL): 0.62±0.08
- Average MTT incorporation as measured by OD560 ([13]; 3 mg/mL): 0.61±0.09
- Average MTT incorporation as measured by OD560 ([13]; 6 mg/mL): 0.72±0.04
- Average MTT incorporation as measured by OD560 ([13]; 12 mg/mL): 0.69±0.01
- Average MTT incorporation as measured by OD560 ([13]; 24 mg/mL): 0.55±0.02
- Effect on MTT incorporation ([13]; at 24 mg/mL): mild reduction
- Effect on MTT incorporation ([13]; up to 12 mg/mL (equal to 21 mM)): did not reduce
- Plaque size as compared to control ([4]; Sample A at 0.44, 1.33 and 4.0 mM): reduced
- Toxicity Scores (T value) ([14]; Compound A 2000 μg/ml): T = 0
- Toxicity Scores (T value) ([14]; Compound A 6000 μg/ml): T = 0
- Plaque size as compared to control ([8]; Compound A at 2000 and 6000 μg/ml): reduced
- Plaque size and number [15]: reduced
- Plaque size and number [16]: reduced

Reference: patent publication US12370209B2, “Methods for the use of 5′-adenosine diphosphate ribose (ADPR)” (Invirsa, Inc., priority 2016, dated 2025)
